Entries after “also recorded” stand apart in the source; their conditions may differ.
Tests used:
Dsg2^mut/mut mice = experiment: Myocardial histology, TUNEL, immunofluorescence and immunoperoxidase in Dsg2^mut/mut mice; format: in vivo
Method: Three cohorts of mice at 8 weeks of age were anesthetized and implanted with subcutaneous osmotic mini-pumps (Alzet, Model 1004). These included: 1) Dsg2^mut/mut mice with pumps containing 50 μg/μL Bay11-7082 in a vehicle of 65% DMSO, 15% ethanol, and 20% saline; 2) Dsg2^mut/mut mice with pumps containing an equivalent volume of vehicle; and 3) wildtype mice with pumps containing vehicle. Mice in cohort 1 received 5 mg/kg/day of Bay11-7082 by continuous infusion; those in cohorts 2 and 3 received an equivalent volume of vehicle each day for 4 weeks. At 12 weeks of age, mice were re-anesthetized and new Alzet pumps were implanted for an additional 4 weeks of treatment.
Immunofluorescence staining was used to characterize the distribution of selected proteins at cell-cell junctions as previously reported.^6,15 Deparaffinized slide-mounted myocardial sections (5 μm thick) were rehydrated and heated in citrate buffer (10 mmol/L, pH 6.0) to enhance specific immunostaining. After being cooled to room temperature, tissue sections were simultaneously permeabelized and blocked by incubating them in PBS containing 1% Triton X-100, 3% normal goat serum and 1% bovine serum albumin. The sections were then incubated first with primary antibodies and then with Cy3-conjugated goat anti-rabbit IgG (Jackson Immunolabs, 1:400). Primary antibodies included rabbit polyclonal anti-Cx43 (SIGMA C6219, 1:200), anti-N-cadherin (SIGMA C3678, 1:400), anti-plakoglobin (Thermo Fisher Scientific PA5-17320, 1:500), anti-GSK3β (Cell Signaling Technology 27C10, 9315S, 1:80) and anti-SAP97 (Abcam, ab134156, 1:200). Immunostained preparations were visualized by confocal microscopy. Additional sections prepared with Masson trichrome and hematoxylin & eosin stains were examined by light microscopy.
Immunoperoxidase staining was used to detect expression of selected cytokines in sections of mouse myocardium as previously reported.^12 Slide-mounted paraffin sections were heated to 60° C. for 80 minutes, cooled to room temperature, deparaffinized, and rehydrated. Antigen retrieval was achieved by heating the samples in citrate buffer (pH 6.0) to boiling followed by cooling to room temperature. Immunohistochemical staining was performed using conventional methods (Universal DAKO EnVision System; peroxidase). Once endogenous peroxidase activity had been blocked, primary antibody was applied followed by incubation with horseradish peroxidase-labeled polymer. The reaction was completed with an enzyme/substrate system, with diaminobenzidine as the chromogen substrate. The tissue was counterstained with Harris hematoxylin. Primary antibodies included rabbit polyclonal anti-TNFα (AbCam ab34674, 1:50 dilution), anti-IL-1(3 (AbCam ab9722, 1:500) and anti-MCP-1α (Novus Biologicals NBP2-41209, 1:250). In each experiment, control, vehicle-treated and drug-treated samples were batched to ensure identical staining and signal-generating conditions.
Immunoperoxidase staining using conventional techniques was also used to detect T-cells and macrophages in myocardial tissue sections from Dsg2^mut/mut mice. T-cells were identified using an anti-CD3 antibody (Abcam ab16669, 1:200 dilution) and macrophages were marked with an anti-CD68 antibody (Abcam ab127055, 1:400). After standard development in diaminobenzidine, sections were counterstained with hematoxylin and examined qualitatively by light microscopy.

[1] = tested on: neonatal rat ventricular myocytes (NRVMs) expressing JUP^2157del2; experiment: In vitro apoptosis assay (TUNEL) in NRVMs expressing mutant plakoglobin; format: cell-based; settings: transfected NRVMs, 24 hours
Method: Primary cultures were prepared from disaggregated ventricles of 1-day-old Wistar rat pups (Charles River) as previously described.^15 Cell suspensions were pre-plated to reduce fibroblast content, placed in collagen-coated chamber slides at a density of 2.4×10^5 cells/cm^2, and grown for 4 days at 37° C. in M199 medium (GIBCO) (supplemented with penicillin, 20 U/mL; streptomycin, 20 μg/mL; 10% neonatal calf serum and 0.1 mM bromodeoxyuridine) in a humidified atmosphere containing 1% CO2. Epinephrine (0.01 μmol/mL) was added during the first 24 hours of culture. At 24 hours post-seeding, cultures were transfected with an adenoviral construct expressing plakoglobin (JUP) with the 2157del2 mutation, as previously reported.^15 At 24 hours post-transfection, cultures were treated with Bay11-7082 (Sigma, […]) for an additional 24 hours. Transfected cultures treated with vehicle only (DMSO) and non-transfected cultures were used for control purposes.
Terminal deoxynucleotidyl transferase dUTP nick end labeling (TUNEL) was performed on neonatal rat myocyte cultures according to the manufacturer's protocol (Millipore, S7110). The number of TUNEL-positive nuclei was counted in 5 randomly selected high-power fields in each culture well and expressed as a per cent of total nuclei visualized with DAPI.

[2] = Dsg2^mut/mut mice, continuous infusion over 8 weeks

With `Cc1ccc(S(=O)(=O)/C=C/C#N)cc1` [Bay 11-7082] the “abnormal distributions of plakoglobin, Cx43, GSK3β and SAP97” value (Dsg2^mut/mut mice; [2]) was “normalized”, the “amount of ventricular myocardial necrosis and fibrosis” value (Dsg2^mut/mut mice; [2]) was “marked reduction” and the “number of apoptotic cells seen by TUNEL labeling” value (Dsg2^mut/mut mice; [2]) was “significant reduction”. For the same compound, the “abnormal distributions of plakoglobin, Cx43, GSK3β and SAP97” value (Dsg2^mut/mut mice; Dsg2^mut/mut mice, continuous infusion over 8 weeks, listed as Bay11-7082) was “fully corrected”, the “immunoreactive signal intensity for IL-1β, TNFα and MCP-1α in myocytes and inflammatory cells” value (Dsg2^mut/mut mice; myocardial sections of Dsg2^mut/mut mice) was “reduced” and the “total number of infiltrating inflammatory cells in the heart” value (Dsg2^mut/mut mice; survey of myocardial sections, Dsg2^mut/mut mice) was “reduced”. For the same compound, the “myocyte apoptosis, TUNEL labeling” value [1] was “normalization; also recorded: returned to control levels”.

— US20210161868A1, “ANTI-INFLAMMATORY THERAPY IN ARRHYTHMOGENIC CARDIOMYOPATHY (ACM)” (Beth Israel Deaconess Medical Center, Inc., priority 2018, published 2021)
